According to PMC7591920, “A protein tertiary structure mimetic modulator of the Hippo signalling pathway” (Nature Communications, 2020):
Bridge positions count the residues as written; N and C are the ends. Square brackets hold non-standard residues; d marks the D form. Peptide text beside a SMILES is read from it. AEEA = NCCOCCOCC(=O)O

Assays:
RKO cells [1] = experiment: Wound closure assay; format: cell-based
Method: Ca. 100,000 RKO cells were seeded per well in a transparent ImageLock 96-well plate (#4379, Essen Bioscience) and treated with the samples the next day. Wound Healing Assay was performed using the IncuCyte® ZOOM system and the WoundMaker™ device (both Essen Bioscience). The scratch was performed according to manufacturer’s protocol and images were acquired every 2 h. Image-based analysis of wound closure was conducted using the IncuCyte ZOOM 2016B software (Essen Bioscience). Confluency within the wound area was normalized to the confluency at the time of scratch preparation and plotted using GraphPad Prism 6.

[2] = system: primary juvenile (P5–P6) rat cardiomyocytes; experiment: Cell cycle activity assay (Ki67/αActinin) in juvenile rat cardiomyocytes; format: cell-based; conditions: for Dose-dependent cell cycle stimulation, MEAN: 4-day treatment, relative to DMSO (100), mean of n = 3
Method: One day after seeding, the cells were treated with test compounds of interest. Treatments were applied with an ECHO 520 acoustic dispenser (Labcyte) and medium was added to the wells. Four days after treatment, the cells were fixed with 4% formaldehyde (Roth) and immunostained in 0.2% Triton-X100 (Roth) in PBS (Gibco) supplemented with 5% FBS. […] Samples were then imaged and analysed on an ImageXpress XL automated microscope (Molecular Devices). Data are depicted as means ± SEM.

RKO cells [3] = experiment: Sub-cellular (cytoplasmic, nuclear) peptide concentration in RKO cells by UPLC-MS; conditions: for Sub-cellular drug content, Cytoplasm / Sub-cellular drug content, Cytoplasm, Measured concentration / Sub-cellular drug content, Nuclear / Sub-cellular drug content, Nuclear, Measured concentration: n = 2
Method: (§1) Peptides were incubated in RKO cells (ATCC, #CRL-2577) as follows: Experiment 1: RKO cells were incubated in 25 µM compound for 90 min and 24 h. Experiment 2: RKO cells were incubated in 25 µM for 30 min or 72 h. Following peptide incubation, the cells were washed twice with PBS, trypsinized and pelleted. The pellets were lysed in RIPA buffer (Perkin Elmer) for total lysis, or CelLytic NuCLEAR Extraction Kit (SIGMA) for subcellular fractionation. Total protein quantification BCA (Pierce) was performed prior to MS analysis to normalize sample data. Total and fractionated cell lysates were analysed by quantitative UPLC-MS utilizing a Waters Xevo TQ-XS (WBA0259) and an Acquity UPLC system from Waters consisting of Sample Manager (M16UFL953M), Acquity PDA (F17UPD457A), Column Oven (E17CMP703G) and Binary Solvent Manager (E17BUR621G). […] Chromatograms of the samples were treated similarly, and by linear regression (1/x) an in-cell concentration was established in the re-suspended cell lysate using the Waters MassLynx TargetLynx^TM product.

GST-hTEAD1 = target: T1, GST-hTEAD1 (Homo sapiens, UniProt P28347); experiment: SPR binding to immobilised GST-hTEAD1; conditions: GST-hTEAD1 amine-coupled on CM5, multi-cycle, steady-state fit 1:1 model, 10 mM HEPES 150 mM NaCl 0.05% Tween-20 pH 7.4, 0.3% DMSO, 20 °C, Fig. 1 values n = 1 replicate
T1 construct: CDNA of hTEAD1(209–426) fused with an N-terminal GST tag; made in house; host or cells: Escherichia coli BL21 DE3 RIL(K+)
Method: Sensor chips Series S CM5 (Research grade) were obtained from GE Healthcare. Prior to use, the sensor chips were equilibrated at room temperature for 15 min to prevent water condensation on the detector side of the sensor chip surface. A running buffer was prepared composed of 10 mM HEPES, 150 mM NaCl, and 0.05% (w/v) Tween-20, pH 7.4, and the system was equilibrated at 20 °C using a flow rate of 30 µL min^−1 after docking of the sensor chip. Ligand binding experiments have been performed applying the concept of multi-cycle kinetics. A contact time of 45 s was selected, followed by a 6-min dissociation phase to allow for complete dissociation of the analyte prior to the next cycle. […] Typically, seven concentrations of the analytes have been examined applying a threefold dilution pattern with 30 µM as top concentration. For the analysis, five running buffer blanks were injected to equilibrate the instrument. […] The carboxyl-dextran surface was activated for 7 min with 0.05 M NHS and 0.2 M EDC, followed by an injection of the proteins in 10 mM MES pH 6.4 at a concentration of 30–50 µg mL^−1. […] This was followed by a deactivation of the residual esters by injecting a solution of 0.5 M ethanolamine pH 8.0 for 7 min before engaging in ligand binding experiments. Reference surfaces were prepared accordingly, omitting the injection of protein over the activated reference surface.

YAP–TEAD interaction = experiment: Proximity ligation assay (PLA) in RKO cells; format: cell-based; conditions: 24 h incubation, c = 30 µM
Method: Ca. 5000 RKO cells were seeded per well in black 96-well plates with glass bottom (#5241-20, MoBiTec) and treated with the peptides or DMSO as vehicle control. After 24 h, the cells were fixed for 10 min using 4% paraformaldehyde (#UN2209, AppliChem) in PBS prior to permeabilization with 0.1% Triton X-100 (#39795.02, Serva) in PBS for 10 min. […] The cells were treated with the corresponding PLA probes (donkey anti-rabbit PLUS, #DUO92002, dilution 1:5; donkey anti-mouse MINUS, #DUO92004, dilution 1:5, Sigma-Aldrich) and with the Duolink In Situ Detection Orange Kit (#DUO92007, Sigma-Aldrich) for ligation and amplification according to the manufacturer's instructions. Finally, the cells were treated with 1 μg mL^-1 DAPI (#D9542, Sigma-Aldrich) to stain nuclei for further microscopy analysis. Images were acquired using a Zeiss Observer Z1 microscope with an 63× oil objective. Picture data were analysed by the ImageJ “analyze particles” macro to count PLA spots per cell. Ten pictures were counted for each condition per experiment. Statistical analysis was performed using Student's paired t test.

RKO cells [4] = experiment: Total drug content in RKO cells by UPLC-MS; conditions: for Total drug content, Measured Concentration: RIPA total lysis, diluted lysate; for Total drug content, Measured Concentration / Total drug content / Measured Conc: UPLC-MS; for Total drug content, Measured Concentration / Total drug content: n = 2; for Total drug content: total lysis
Method: as §1

mTEAD4 = target: T2, mTEAD4 (Mus musculus, UniProt Q62296); experiment: SPR binding to immobilised mTEAD4; conditions: mTEAD4 amine-coupled on CM5, multi-cycle, steady-state fit 1:1 model, 10 mM HEPES 150 mM NaCl 0.05% Tween-20 pH 7.4, 0.3% DMSO, 20 °C, Fig. 1 values n = 1 replicate
T2 construct: Mouse TEAD4(210–427) cDNA fused with a 6x His-tag and a 3C protease cleavage site; 6x His-tag; 3C protease cleavage site; made in house; host or cells: E. coli BL21 DE3 RIL(K+)
How it was run: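 Proteins amine-coupled (NHS/EDC) to CM5 chips from 10 mM MES pH 6.4; running buffer 10 mM HEPES, 150 mM NaCl, 0.05% Tween-20, pH 7.4, 20 °C, 30 µL min^−1. Multi-cycle kinetics: seven threefold analyte dilutions from 30 µM, 45 s contact, 6-min dissociation, reference-surface subtracted.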

[5] = 25 µM compound, 90 minutes, fractionation, UPLC-MS
[6] = 25 µM compound, 24 hours, fractionation, UPLC-MS
[7] = 25 µM, authors' response in peer review file

T1 sequence (P28347 209-426): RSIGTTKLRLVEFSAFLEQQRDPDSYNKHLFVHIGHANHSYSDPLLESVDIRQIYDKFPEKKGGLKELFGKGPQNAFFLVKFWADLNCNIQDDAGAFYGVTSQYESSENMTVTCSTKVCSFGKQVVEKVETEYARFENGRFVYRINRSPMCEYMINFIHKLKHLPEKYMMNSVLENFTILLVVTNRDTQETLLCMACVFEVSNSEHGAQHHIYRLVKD
T2 sequence (Q62296 210-427): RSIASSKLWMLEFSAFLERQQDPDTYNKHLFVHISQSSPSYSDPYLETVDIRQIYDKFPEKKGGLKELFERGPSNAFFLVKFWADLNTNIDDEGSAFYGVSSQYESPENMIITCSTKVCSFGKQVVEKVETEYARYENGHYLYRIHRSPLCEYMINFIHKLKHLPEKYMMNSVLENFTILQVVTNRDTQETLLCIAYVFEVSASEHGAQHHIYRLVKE

CC[C@H](C)[C@@H]1NC(=O)[C@H](CCC(N)=O)NC(=O)[C@H](CC(C)C)NC(=O)[C@H](Cc2c[nH]c3ccccc23)NC(=O)[C@H]([C@@H](C)O)NC(=O)[C@H](CC(=O)O)NC(=O)CNC(=O)[C@H](CC(C)C)NC(=O)[C@H](C)NC(=O)[C@H](CCCCN)NC(=O)[C@H](C)NC(=O)[C@H](Cc2ccccc2)NC(=O)[C@H](Cc2c[nH]cn2)NC(=O)[C@H](CC(=O)O)NC(=O)[C@@H](NC(=O)[C@@H](NC(=O)[C@H](CO)NC(=O)COCCOCCNC(=O)[C@H](CCC(N)=O)NC(=O)[C@@H]2CCCN2C(=O)[C@H](CCCNC(=N)N)NC(=O)[C@H](CCCNC(=N)N)NC(=O)[C@H](CCCNC(=N)N)NC(=O)[C@H](CCC(N)=O)NC(=O)[C@H](CCCNC(=N)N)NC(=O)[C@H](CCCNC(=N)N)NC(=O)[C@H](CCCCN)NC(=O)[C@H](CCCCN)NC(=O)[C@H](CCCNC(=N)N)NC(=O)CNC(C)=O)C(C)C)CCC(=O)NCCCC[C@@H](C(=O)N[C@@H](C)C(=O)N[C@@H](C)C(N)=O)NC1=O [compound 7] (Ac-GRKKRRQRRRPQ[AEEA]SVEDHFAKALGDTWLQIKAA-NH2; lactam 16-31)
Effect on wound closure (RKO cells [1]; c = 30 µM, 48 h treatment): considerably increased wound closure
Wound closure (%) (RKO cells [1]; dose-dependent, 1 µM peptide 7, mean of n = 3): 53.07%
Wound closure (%) (RKO cells [1]; dose-dependent, 5 µM peptide 7, mean of n = 3): 61.51%
Wound closure (%) (RKO cells [1]; dose-dependent, 10 µM peptide 7, mean of n = 3): 67.72%
Wound closure (%) (RKO cells [1]; dose-dependent, 30 µM peptide 7, mean of n = 3): 76.06%
Wound closure (%) (RKO cells [1]; time-dependent, 12 hours, mean of n = 3): 26.59%
Wound closure (%) (RKO cells [1]; time-dependent, 24 hours, mean of n = 3): 49.56%
Wound closure (%) (RKO cells [1]; time-dependent, 36 hours, mean of n = 3): 65.47%
Wound closure (%) (RKO cells [1]; time-dependent, 48 hours, mean of n = 3): 75.27%
Dose-dependent cell cycle stimulation, MEAN ([2]; 1 mM (so in the source)): 106.813
Dose-dependent cell cycle stimulation, MEAN ([2]; 5 mM (so in the source)): 131.729
Dose-dependent cell cycle stimulation, MEAN ([2]; 10 mM (so in the source)): 172.672
Effect on cardiomyocyte cell cycle activity ([2]; P5–P6 rat heart cells, 4-days incubation, Ki67/αActinin double-positive cells): stimulates cell cycle activity to the same extent as positive controls
Cell cycle activity, MEAN ([2]; c = 10 µM, 4 days, relative to DMSO-treated cells (100), mean of N = 6): 148.037
Sub-cellular drug content, Cytoplasm (RKO cells [3]; [5]): 0.07968 nmol
Sub-cellular drug content, Cytoplasm, Measured concentration (RKO cells [3]; [5]): 265.5865 nM
Sub-cellular drug content, Nuclear (RKO cells [3]; [5]): 0.1853 nmol
Sub-cellular drug content, Nuclear, Measured concentration (RKO cells [3]; [5]): 123.5385 ± 6.5745 nM
Sub-cellular drug content, Cytoplasm (RKO cells [3]; [6]): 0.04677 nmol
Sub-cellular drug content, Cytoplasm, Measured concentration (RKO cells [3]; [6]): 155.914 ± 40.331 nM
Sub-cellular drug content, Nuclear (RKO cells [3]; [6]): 0.06065 nmol
Sub-cellular drug content, Nuclear, Measured concentration (RKO cells [3]; [6]): 202.161 ± 23.082 nM
loss of cytosolic concentration between 90 min and 24 h incubation (RKO cells [3]; [7]): 47%
pMol/mg (RKO cells [3]; Cytoplasm, 25 µM compound, 90 minutes (1.5 hrs), replicate 1): 104.1 pMol/mg
pMol/mg (RKO cells [3]; Cytoplasm, 25 µM compound, 90 minutes (1.5 hrs), replicate 2): 74.3 pMol/mg
pMol/mg (RKO cells [3]; Cytoplasm, 25 µM compound, 24 hours, replicate 1): 73.3 pMol/mg
pMol/mg, Mean (RKO cells [3]; Nuclear, 25 µM compound, 90 minutes (1.5 hrs), mean of 2 replicates): 231.15 pMol/mg
pMol/mg (RKO cells [3]; Nuclear, 25 µM compound, 24 hours, replicate 1): 336.5 pMol/mg
Cytoplasmic concentration of peptide (RKO cells [3]; cytoplasmic fraction, UPLC-MS, mean of n = 2): 89.2 pMols/mg of protein
Nuclear concentration of peptide (RKO cells [3]; nuclear fraction, UPLC-MS, mean of n = 2): 209 pMols/mg of protein
Detection in cytoplasmic and nuclear fractions (RKO cells [3]; unlabelled peptide 25 µM, 90 min and 24 h, fractionation, UPLC-MS): found in both compartments
Kd (GST-hTEAD1): 0.83 ± 0.78 µM
Effect on YAP–TEAD complexes (PLA) (YAP–TEAD interaction): an increase in YAP–TEAD complexes
Total drug content, Measured Concentration (RKO cells [4]; 25 µM compound, 90 minutes): 122.09 ± 7.277 nM
Total drug content (RKO cells [4]; 25 µM compound, 90 minutes): 0.1831 ± 0.01091 nmol
Total drug content, Measured Concentration (RKO cells [4]; 25 µM compound, 24 hours): 91.646 ± 61.816 nM
Total drug content (RKO cells [4]; 25 µM compound, 24 hours): 0.1375 ± 0.09272 nmol
loss of total concentration between 90 min and 24 h incubation (RKO cells [4]; [7]): 30%
Measured Conc (RKO cells [4]; total drug content, 25 µM compound, 90 minutes, dilution factor 10, replicate 1): 114.813 nM
Measured Conc (RKO cells [4]; total drug content, 25 µM compound, 90 minutes, dilution factor 10, replicate 2): 129.367 nM
pMol/mg of protein, Mean (RKO cells [4]; total drug content, 25 µM compound, 90 minutes, mean of 2 replicates): 183.0 pMol/mg of protein
Measured Conc (RKO cells [4]; total drug content, 25 µM compound, 24 hours, dilution factor 10, replicate 1): 153.462 nM
Measured Conc (RKO cells [4]; total drug content, 25 µM compound, 24 hours, dilution factor 10, replicate 2): 29.83 nM
pMol/mg, Mean (RKO cells [4]; total drug content, 25 µM compound, 24 hours, mean of 2 replicates): 127.1 pMol/mg
Kd (mTEAD4): 1.5 ± 1 µM
